# Measured values from the supplement of paper PMC10307832.
# Tests used:
# Experiment in all cases: relative viability (nuclei count vs DMSO), 5 days (fraction); higher = more cells survive
# BX 795 + Phenformin = compound: O=C(NCCCNc1nc(Nc2cccc(NC(=O)N3CCCC3)c2)ncc1I)c1cccs1 [BX 795] + N=C(N)NC(=N)NCCc1ccccc1 [Phenformin] (partner 250 µM)
# Method in brief: (§1)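 Lung cancer cell lines in 1536-well plates got either a single drug or a fixed anchor-drug dose together with five library-drug doses (not always all listed) in √10 steps, by pin tool, on the day after seeding. Nuclei were counted after 5 days, and relative viability is the treated-to-vehicle ratio of nuclei counts. Values are medians of duplicate plates.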
# BX 795 + Pictilisib = compound: O=C(NCCCNc1nc(Nc2cccc(NC(=O)N3CCCC3)c2)ncc1I)c1cccs1 [BX 795] + CS(=O)(=O)N1CCN(Cc2cc3nc(-c4cccc5[nH]ncc45)nc(N4CCOCC4)c3s2)CC1 [Pictilisib] (partner 1 µM)
# Method in brief: as §1
# BX 795 + Luminespib = compound: O=C(NCCCNc1nc(Nc2cccc(NC(=O)N3CCCC3)c2)ncc1I)c1cccs1 [BX 795] + CCNC(=O)c1noc(-c2cc(C(C)C)c(O)cc2O)c1-c1ccc(CN2CCOCC2)cc1 [Luminespib] (partner 0.01 µM)
# Method in brief: as §1
# BX 795 + Palbociclib = compound: O=C(NCCCNc1nc(Nc2cccc(NC(=O)N3CCCC3)c2)ncc1I)c1cccs1 [BX 795] + CC(=O)c1c(C)c2cnc(Nc3ccc(N4CCNCC4)cn3)nc2n(C2CCCC2)c1=O [Palbociclib] (partner 0.5 µM)
# Method in brief: as §1
# BX 795 + OSI-027 = compound: O=C(NCCCNc1nc(Nc2cccc(NC(=O)N3CCCC3)c2)ncc1I)c1cccs1 [BX 795] + COc1cccc2cc(-c3nc([C@H]4CC[C@H](C(=O)O)CC4)n4ncnc(N)c34)[nH]c12 [OSI-027] (partner 0.5 µM)
# Method in brief: as §1
Cell Line,relative viability (BX 795 + Phenformin; first compound 0.04 µM),relative viability (BX 795 + Phenformin; first compound 0.1265 µM),relative viability (BX 795 + Phenformin; first compound 0.4 µM),relative viability (BX 795 + Phenformin; first compound 1.265 µM),relative viability (BX 795 + Pictilisib; first compound 0.04 µM),relative viability (BX 795 + Pictilisib; first compound 0.1265 µM),relative viability (BX 795 + Pictilisib; first compound 0.4 µM),relative viability (BX 795 + Pictilisib; first compound 1.265 µM),relative viability (BX 795 + Luminespib; first compound 0.04 µM),relative viability (BX 795 + Luminespib; first compound 0.1265 µM),relative viability (BX 795 + Luminespib; first compound 0.4 µM),relative viability (BX 795 + Luminespib; first compound 1.265 µM),relative viability (BX 795 + Palbociclib; first compound 0.04 µM),relative viability (BX 795 + Palbociclib; first compound 0.4 µM),relative viability (BX 795 + Palbociclib; first compound 1.265 µM),relative viability (BX 795 + OSI-027; first compound 0.04 µM),relative viability (BX 795 + OSI-027; first compound 0.1265 µM),relative viability (BX 795 + OSI-027; first compound 0.4 µM),relative viability (BX 795 + OSI-027; first compound 1.265 µM),relative viability (BX 795 + Palbociclib; first compound 0.1265 µM)
ABC-1,0.263,0.265,0.262,0.195,0.507,0.555,0.634,0.661,0.445,0.381,0.334,0.283,0.768,0.765,0.727,0.577,0.512,0.459,0.33,–
NCI-H2023,0.426,0.378,0.305,0.195,0.152,0.239,0.188,0.197,0.766,0.613,0.442,0.272,0.4,0.358,0.17,0.272,0.398,0.173,0.182,0.366
BEN,0.235,0.278,0.245,0.21,0.542,0.587,0.533,0.715,0.458,0.432,0.351,0.312,0.454,0.49,0.491,0.264,0.297,0.257,0.26,0.436
NCI-H23,0.803,0.825,0.794,0.782,0.515,0.504,0.41,0.391,–,0.207,0.216,0.211,0.457,0.567,0.464,0.6,0.701,0.621,0.506,0.43
EKVX,0.225,0.247,0.21,0.217,0.401,0.455,0.421,0.466,0.893,0.977,0.825,0.79,0.51,0.381,0.365,0.657,0.649,0.63,0.603,0.483
201T,0.47,0.421,0.464,0.421,0.689,0.679,0.721,0.68,1.03,1.07,1.19,1.04,0.333,0.376,0.405,0.946,0.675,0.775,0.824,0.34
NCI-H1993,0.492,0.499,0.485,0.523,0.83,0.79,0.793,0.806,0.686,1.1,0.726,0.532,0.67,0.671,0.642,0.528,0.537,0.531,0.532,0.744
LCLC-103H,0.301,0.327,0.355,0.298,0.577,0.674,0.596,0.643,0.941,0.84,1.06,0.737,0.441,0.529,0.445,0.476,0.528,0.488,0.501,0.511
NCI-H2347,0.475,0.466,0.555,0.391,0.818,0.492,0.851,0.722,0.534,0.563,0.751,0.607,0.496,0.523,0.496,0.503,0.541,0.616,0.352,0.417
